What all share (format): ADME, Microsome
The subject of series [1] is Liver microsomes. Nature of the series: Metabolic stability in rat liver microsomes assessed as covalent binding at 10 uM after 1 hr by scintillation counting in presence of glutathione. In general terms: Liver microsomes are a subcellular fraction often used to study metabolism.
Series [2] concerns Liver microsomes. Nature of the series: Metabolic stability in rat liver microsomes assessed as covalent binding at 10 uM after 1 hr preincubated for 15 mins with NADPH by scintillation counting.
Series [3] relates to Liver microsomes. The series can be described thus: Metabolic stability in human liver microsomes assessed as covalent binding at 10 uM after 1 hr by scintillation counting in absence of NADPH.
Series [4] concerns Liver microsomes. The series can be described thus: Metabolic stability in human liver microsomes assessed as covalent binding at 10 uM after 1 hr preincubated for 15 mins with NADPH by scintillation counting.
For series [5], the system named is Liver microsomes. Nature of the series: Metabolic stability in rat liver microsomes assessed as covalent binding at 10 uM after 1 hr by scintillation counting in absence of NADPH.

As to `C[C@@H](CO)Oc1cc(Oc2ccc(S(C)(=O)=O)cc2)cc(C(=O)Nc2nccs2)c1`, the Stability with Liver microsomes [1] is 50 pmolequiv/mg; with Liver microsomes [2], 378 pmolequiv/mg; with Liver microsomes [3] it was 10 pmolequiv/mg; in the series on Liver microsomes [4], 715 pmolequiv/mg; in the series on Liver microsomes [5], 0 pmolequiv/mg.

The values above are taken from ChEMBL document CHEMBL1154966, “Metabolic activation of N-thiazol-2-yl benzamide as glucokinase activators: Impacts of glutathione trapping on covalent binding” (Bioorg Med Chem Lett, 2010).
